Results: paper PMC9785231, “Synthesis and Pharmacological Evaluation of Enantiopure N-Substituted Ortho-c Oxide-Bridged 5-Phenylmorphans” (Molecules, 2022)

Tests used:
[1] = tested on: cloned human mu-opioid receptor; conditions: [35S]GTPγS functional assay; cited from earlier work
[2] = target: mu-opioid receptor (MOR); conditions: N-substituted 5-phenylmorphans; read-out: affinity at MOR Ki; cited from earlier work
[3] = target: CYP2C19 (Homo sapiens, UniProt P33261); assay: in vitro; conditions: microsomes
[4] = Microsomal metabolic stability, mouse liver microsomes; conditions: for Remaining (NCF = 60 min): MLM 0.5, no co-factor (no NADPH); for Remaining (T = 60 min): MLM 0.5, with NADPH
[5] = target: T1, κ-opioid receptor (KOR) (Rattus norvegicus, UniProt P34975); assay: Opioid receptor binding, KOR ([3H]U69,593), rat brain homogenate; conditions: for Ki: [3H]U69,593, whole rat brains excluding cerebellum, read-out: KOR Binding (Ki ± SEM); for fold lower affinity at KOR than at MOR: from Ki of Table 1
T1 construct: All assay tubes contained 100 μL homogenate suspension; from tissue; host or cells: whole rat brain excluding cerebellum, membrane homogenate

[6] = Microsomal metabolic stability, human liver microsomes
[7] = target: T2, human κ-opioid receptor (OPRK1) (Homo sapiens, UniProt P41145); assay: Forskolin-induced cAMP accumulation assay, KOR agonist mode
[8] = target: T3, human δ-opioid receptor (OPRD1) (Homo sapiens, UniProt P41143); conditions: versus EC50 of SNC80; normalized to naltrexone
[9] = in vitro; conditions: mouse, microsomes
[10] = target: T3, human δ-opioid receptor (OPRD1); assay: Forskolin-induced cAMP accumulation assay, DOR agonist mode
[11] = target: T4, δ-opioid receptor (DOR) (Rattus norvegicus, UniProt P33533); assay: Opioid receptor binding, DOR ([3H]DADLE), rat brain homogenate; conditions: for Ki: [3H]DADLE, whole rat brains excluding cerebellum, read-out: DOR Binding (Ki ± SEM); for fold lower affinity at DOR than at MOR: from Ki of Table 1
T4 construct: All assay tubes contained 100 μL homogenate suspension; from tissue; host or cells: whole rat brain excluding cerebellum, membrane homogenate

[12] = tested on: CYP3A; assay: P450 inhibition, human liver microsomal CYP3A; assay type: in vitro ADME; conditions: human liver microsomes, read-out: 3A %Inhibition
[13] = in vitro; conditions: human, microsomes
[14] = target: CYP2C9 (Homo sapiens, UniProt P11712); assay: P450 inhibition, human liver microsomal CYP2C9; conditions: microsomes
[15] = target: T2, human κ-opioid receptor (OPRK1); assay: Forskolin-induced cAMP accumulation assay, KOR antagonist mode; conditions: for KOR Antagonist %Imax ± SEM: versus EC90 of U50488H, normalized to nor-BNI
[16] = target: T5, μ-opioid receptor (MOR) (Rattus norvegicus, UniProt P33535); assay: Opioid receptor binding, MOR ([3H]DAMGO), rat brain homogenate; conditions: [3H]DAMGO, whole rat brains excluding cerebellum; read-out: MOR Binding (Ki ± SEM)
T5 construct: All assay tubes contained 100 μL homogenate suspension; from tissue; host or cells: whole rat brain excluding cerebellum, membrane homogenate

[17] = target: T6, CYP1A2 (Homo sapiens, UniProt P05177); assay: P450 inhibition, human liver microsomal CYP1A2; conditions: microsomes
T6 sequence (P05177 1-516): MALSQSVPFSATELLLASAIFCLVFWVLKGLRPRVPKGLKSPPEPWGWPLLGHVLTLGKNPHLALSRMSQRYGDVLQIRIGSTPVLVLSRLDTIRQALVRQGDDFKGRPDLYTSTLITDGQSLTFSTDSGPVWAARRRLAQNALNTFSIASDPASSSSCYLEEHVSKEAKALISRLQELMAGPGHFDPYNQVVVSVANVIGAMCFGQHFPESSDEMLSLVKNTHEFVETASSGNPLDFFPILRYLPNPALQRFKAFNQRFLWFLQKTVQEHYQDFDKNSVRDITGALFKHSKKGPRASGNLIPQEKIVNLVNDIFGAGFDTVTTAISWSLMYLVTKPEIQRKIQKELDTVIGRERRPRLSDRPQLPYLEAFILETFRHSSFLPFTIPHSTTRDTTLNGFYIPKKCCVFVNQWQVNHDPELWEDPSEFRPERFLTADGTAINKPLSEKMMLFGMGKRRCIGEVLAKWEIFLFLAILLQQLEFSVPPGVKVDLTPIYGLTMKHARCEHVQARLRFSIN

[18] = target: T3, human δ-opioid receptor (OPRD1); assay: cell-based
[19] = target: T7, CYP2D6 (Homo sapiens, UniProt P10635); assay: P450 inhibition, human liver microsomal CYP2D6; assay type: in vitro ADME
T7 construct: selected human liver microsomal cytochrome P450 isozymes (CYP1A2, CYP2C9, CYP2C19, CYP2D6, and CYP3A); from tissue; host or cells: human liver microsomes

[20] = forskolin-induced cAMP accumulation assay

T4 sequence (P33533 whole entry): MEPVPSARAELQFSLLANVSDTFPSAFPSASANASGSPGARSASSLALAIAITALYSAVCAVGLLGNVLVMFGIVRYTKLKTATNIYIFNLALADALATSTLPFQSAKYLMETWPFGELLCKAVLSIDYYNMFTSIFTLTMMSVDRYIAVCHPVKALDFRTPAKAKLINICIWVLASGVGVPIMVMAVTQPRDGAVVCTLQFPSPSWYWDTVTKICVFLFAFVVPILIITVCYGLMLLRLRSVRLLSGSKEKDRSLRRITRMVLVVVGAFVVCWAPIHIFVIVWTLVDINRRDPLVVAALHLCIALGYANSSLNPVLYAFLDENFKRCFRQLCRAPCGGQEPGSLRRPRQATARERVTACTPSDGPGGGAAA
T2 sequence (P41145 whole entry): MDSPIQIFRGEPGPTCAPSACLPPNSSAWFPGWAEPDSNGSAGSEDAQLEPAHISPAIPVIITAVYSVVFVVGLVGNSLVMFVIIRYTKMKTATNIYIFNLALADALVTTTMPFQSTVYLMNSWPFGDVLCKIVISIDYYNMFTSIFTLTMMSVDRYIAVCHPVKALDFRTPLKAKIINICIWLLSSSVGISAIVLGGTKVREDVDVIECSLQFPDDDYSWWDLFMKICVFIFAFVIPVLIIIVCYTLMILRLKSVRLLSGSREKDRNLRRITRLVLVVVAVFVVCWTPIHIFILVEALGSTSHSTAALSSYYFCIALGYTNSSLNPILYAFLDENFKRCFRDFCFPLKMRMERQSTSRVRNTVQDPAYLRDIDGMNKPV
T3 sequence (P41143 whole entry): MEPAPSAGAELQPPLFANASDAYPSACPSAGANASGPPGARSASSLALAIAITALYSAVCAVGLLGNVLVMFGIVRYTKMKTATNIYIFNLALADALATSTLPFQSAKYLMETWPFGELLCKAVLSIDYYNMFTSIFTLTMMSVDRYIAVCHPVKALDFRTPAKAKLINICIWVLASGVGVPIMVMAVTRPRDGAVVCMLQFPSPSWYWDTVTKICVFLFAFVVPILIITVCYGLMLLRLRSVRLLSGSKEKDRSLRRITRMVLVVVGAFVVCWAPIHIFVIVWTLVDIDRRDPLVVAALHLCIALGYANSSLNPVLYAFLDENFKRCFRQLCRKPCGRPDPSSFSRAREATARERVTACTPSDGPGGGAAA
T1 sequence (P34975 whole entry): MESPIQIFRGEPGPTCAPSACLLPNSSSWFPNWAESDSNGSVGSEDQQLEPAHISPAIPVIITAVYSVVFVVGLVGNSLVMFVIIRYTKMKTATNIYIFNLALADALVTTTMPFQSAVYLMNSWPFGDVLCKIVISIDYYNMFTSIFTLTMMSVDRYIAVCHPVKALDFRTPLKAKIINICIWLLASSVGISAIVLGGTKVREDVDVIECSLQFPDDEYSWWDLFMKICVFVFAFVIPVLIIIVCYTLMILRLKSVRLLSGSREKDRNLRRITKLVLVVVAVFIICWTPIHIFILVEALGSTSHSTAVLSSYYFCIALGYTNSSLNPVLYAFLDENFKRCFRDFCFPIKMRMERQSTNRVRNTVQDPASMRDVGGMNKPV
CYP2C19, sequence (P33261 whole entry): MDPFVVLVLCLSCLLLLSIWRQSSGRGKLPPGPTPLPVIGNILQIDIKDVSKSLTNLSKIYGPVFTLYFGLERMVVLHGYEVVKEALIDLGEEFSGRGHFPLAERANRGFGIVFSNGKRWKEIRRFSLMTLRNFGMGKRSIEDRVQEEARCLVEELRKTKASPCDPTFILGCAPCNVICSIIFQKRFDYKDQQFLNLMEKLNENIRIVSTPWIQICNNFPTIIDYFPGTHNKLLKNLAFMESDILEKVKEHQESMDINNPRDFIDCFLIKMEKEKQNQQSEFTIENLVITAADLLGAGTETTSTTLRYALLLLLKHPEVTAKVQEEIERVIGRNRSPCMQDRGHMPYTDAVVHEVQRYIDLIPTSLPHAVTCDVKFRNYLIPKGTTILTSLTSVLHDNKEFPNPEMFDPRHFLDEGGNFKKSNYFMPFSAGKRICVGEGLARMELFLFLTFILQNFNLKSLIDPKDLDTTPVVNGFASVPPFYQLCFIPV
T7 sequence (P10635 whole entry): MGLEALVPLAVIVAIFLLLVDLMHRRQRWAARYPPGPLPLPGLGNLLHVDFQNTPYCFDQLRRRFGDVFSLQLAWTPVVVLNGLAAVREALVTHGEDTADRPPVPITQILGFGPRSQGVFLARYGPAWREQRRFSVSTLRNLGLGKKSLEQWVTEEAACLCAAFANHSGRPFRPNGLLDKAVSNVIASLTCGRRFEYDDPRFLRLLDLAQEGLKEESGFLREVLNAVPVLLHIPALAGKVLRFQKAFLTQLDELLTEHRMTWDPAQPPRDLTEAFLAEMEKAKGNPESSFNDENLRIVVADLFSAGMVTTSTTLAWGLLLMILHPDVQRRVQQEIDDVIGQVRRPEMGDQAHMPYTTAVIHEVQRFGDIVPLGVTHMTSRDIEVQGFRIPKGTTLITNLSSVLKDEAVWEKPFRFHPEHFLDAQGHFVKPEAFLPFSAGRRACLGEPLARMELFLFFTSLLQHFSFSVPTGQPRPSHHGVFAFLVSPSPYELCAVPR
T5 sequence (P33535 whole entry): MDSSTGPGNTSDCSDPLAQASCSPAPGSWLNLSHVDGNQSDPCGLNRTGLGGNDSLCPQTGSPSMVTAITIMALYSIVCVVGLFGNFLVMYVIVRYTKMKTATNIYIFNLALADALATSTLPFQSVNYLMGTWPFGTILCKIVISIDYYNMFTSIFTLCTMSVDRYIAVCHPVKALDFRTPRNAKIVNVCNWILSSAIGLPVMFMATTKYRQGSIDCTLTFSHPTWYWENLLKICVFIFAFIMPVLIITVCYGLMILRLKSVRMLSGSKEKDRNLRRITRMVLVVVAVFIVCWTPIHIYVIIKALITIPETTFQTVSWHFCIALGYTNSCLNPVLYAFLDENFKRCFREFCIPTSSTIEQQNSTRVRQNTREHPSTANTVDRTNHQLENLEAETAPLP
CYP2C9, sequence (P11712 whole entry): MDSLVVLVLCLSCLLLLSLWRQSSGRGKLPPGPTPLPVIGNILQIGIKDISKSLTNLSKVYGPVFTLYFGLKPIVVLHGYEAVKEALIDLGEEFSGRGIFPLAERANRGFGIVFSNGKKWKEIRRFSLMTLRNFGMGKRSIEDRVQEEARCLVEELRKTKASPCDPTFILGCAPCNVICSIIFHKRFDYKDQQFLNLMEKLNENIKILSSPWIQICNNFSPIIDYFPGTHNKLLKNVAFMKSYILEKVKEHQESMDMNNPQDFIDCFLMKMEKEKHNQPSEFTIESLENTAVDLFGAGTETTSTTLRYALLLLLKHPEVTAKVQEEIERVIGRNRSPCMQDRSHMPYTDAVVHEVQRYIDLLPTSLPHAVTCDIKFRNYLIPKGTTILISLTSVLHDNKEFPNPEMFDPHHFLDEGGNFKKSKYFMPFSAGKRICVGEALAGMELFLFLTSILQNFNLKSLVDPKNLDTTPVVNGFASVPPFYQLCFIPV

| SMILES | inhibition at 10 µM [3] | Remaining (NCF = 60 min) [4] | Remaining (T = 60 min) [4] | Ki [5] | fold lower affinity at KOR than at MOR [5] | EC50 [7] | DOR Antagonist %Imax ± SEM [8] | EC50 [10] | Ki [11] | fold lower affinity at DOR than at MOR [11] | inhibition at 10 µM [12] | inhibition at 10 µM [14] | IC50 [15] | KOR Antagonist %Imax ± SEM [15] | Ki [16] | inhibition at 10 µM [17] | IC50 [18] | further results |
| --- | --- | --- | --- | --- | --- | --- | --- | --- | --- | --- | --- | --- | --- | --- | --- | --- | --- | --- |
| Oc1cccc(C23CCCC(C2)N(CC2CC2c2ccccc2)CC3)c1 (single isomer, unassigned; (-)) [(-)-3] | – | – | – | – | – | – | – | – | – | – | – | – | – | – | – | – | – | mu-opioid antagonist activity Ke [1]: 0.3 nM; Ki [2]: 0.004 µM |
| Oc1cccc2c1O[C@H]1CN(C[C@H]3C[C@@H]3c3ccccc3)[C@H]3CCC[C@@]21C3 [(+)-17, (3S,6aR,11aR)-2-(((1S,2S)-2-Phenylcyclopropyl)methyl)-1,3,4,5,6,11a-hexahydro-2H-3,6a-methanobenzofuro[2,3-c]azocin-10-ol] | 46.6% | 94.4% | 0.2% | 0.1 ± 0.01 µM | about 10 fold | > 10 µM | 160.9 ± 4.0% | > 10 µM | 0.0494 ± 0.0051 µM | approximately 4 fold | 24.7% | 36.6% | 0.206 ± 0.0632 µM | 106.1 ± 5.5% | 0.0119 ± 0.0016 µM | 6.8% | 0.487 ± 0.157 µM | Remaining (NCF = 60 min) ([6]; HLM 0.5, no co-factor (no NADPH)): 98.5%; Remaining (T = 60 min) ([6]; HLM 0.5, with NADPH): 13.0%; functional agonist activity at KOR [7, 20]: did not have functional agonist activity; CLint scaled [9]: 801 mL/min/kg; half-life [9]: 6.9 min; microsomal CLint [9]: 202 µL/min/mg; functional agonist activity at DOR [10, 20]: did not have functional agonist activity; CLint scaled [13]: 62 mL/min/kg; half-life [13]: 20.1 min; microsomal CLint [13]: 68.9 µL/min/mg; 2D6 %Inhibition ([19]; 10 µM): 66.8%; inhibition at 10 µM ([19]; human, human liver microsomes, read-out: 2D6 %Inhibition): > 50% |
| Oc1cccc2c1O[C@H]1CN(CCc3ccccc3)[C@H]3CCC[C@@]21C3 [(-)-1, (3S,6aR,11aR)-2-Phenethyl-1,3,4,5,6,11a-hexahydro-2H-3,6a-methano-benzofuro[2,3-c]azocin-10-ol] | – | – | – | 0.013 ± 0.0012 µM | about 10 fold | > 10 µM | 86.5 ± 6.4% | > 10 µM | 0.0348 ± 0.0044 µM | approximately 30 fold | – | – | 0.102 ± 0.0658 µM | 109.3 ± 8.1% | 0.00111 ± 0.00015 µM | – | 0.409 ± 0.138 µM | – |
| CC(=O)N1CCN(c2ccc(OCC3COC(Cn4ccnc4)(c4ccc(Cl)cc4Cl)O3)cc2)CC1 (centres unmarked) [Ketoconazole, reference compound] | – | – | – | – | – | – | – | – | – | – | 98.8% | – | – | – | – | – | – | – |
| O=C1CC[C@@]2(O)[C@H]3Cc4ccc(O)c5c4[C@@]2(CCN3CC2CC2)[C@H]1O5 [Naltrexone] | 0% | 84.3% | 48.1% | – | – | – | – | – | – | – | – | 0% | – | – | – | – | – | Remaining (NCF = 60 min) ([6]; human, microsomes, 1 h): 99.8%; Remaining (T = 60 min) ([6]; human, microsomes, 1 h): 97.1% |
| O=c1cc(-c2ccccc2)oc2c1ccc1ccccc12 [α-Naphthoflavone, reference compound] | – | – | – | – | – | – | – | – | – | – | – | – | – | – | – | 88.3% | – | – |
